This note sets out measurements from DBAASP.

≈ marks a conversion by molar mass, not a printed value. Where “and” joins values, the source holds several entries; their conditions need not be identical. Identical values can stand only once.

Common to all, as to test: ≥ marks a high value that may be exact or a test limit, other limits are often not marked, values filed in µg/mL are converted to µM
Assay [1] deals with Escherichia coli DSM 1103.
For assay [2], the system named is Klebsiella pneumoniae DSM 681.
Assay [3] relates to Streptococcus pneumoniae DSM 11865.
For assay [4], the system named is Pseudomonas aeruginosa DSM 1128.
Assay [5] concerns Staphylococcus aureus ATCC 25923.
Assay [6] concerns Staphylococcus aureus 90857.
Assay [7] concerns Clavibacter michiganensis subsp. michiganensis DSM 46294.
Assay [8] relates to Pseudomonas corrugata DSM 7228.
Assay [9] has as its system Xanthomonas vesicatoria DSM 50861.
In assay [10] the test system is Pectobacterium carotovorum subsp. carotovorum DSM 30168.
Assay [11] deals with Pseudomonas syringae pv. syringae DSM 10604.
Assay [12] relates to Pseudomonas syringae pv. tomato DC3000.
The subject of assay [13] is Cladosporium herbarum.
Assay [14] deals with Alternaria alternata.
Assay [15] deals with Botrytis cinerea.
Assay [16] has as its system Saccharomyces cerevisiae ATCC 44774.
The test system of assay [17] is Micrococcus luteus ATCC 10240.
Assay [18] concerns Salmonella typhimurium KCTC 2370.
Assay [19] relates to Escherichia coli ATCC 27325.
In assay [20] the test system is Enterococcus faecalis ATCC 29212.
The subject of assay [21] is Pseudomonas aeruginosa ATCC 27853.
Assay [22] has as its system Bacillus subtilis KCTC 3038.
Assay [23] deals with Candida albicans ATCC 10231.
Assay [24] deals with Cryptococcus neoformans ATCC 34881.
For assay [25], the system named is Staphylococcus aureus ATCC 15752.
Assay [26] concerns Saccharomyces cerevisiae ATCC 8530.
Assay [27] concerns Escherichia coli W160-37.
Assay [28] relates to Staphylococcus aureus ATCC 8530.
The subject of assay [29] is Pseudomonas putida NCIM 2102.
For assay [30], the system named is Escherichia coli ATCC 25922.
The test system of assay [31] is Enterobacter cloacae ATCC 49141.
Assay [32] has as its system Escherichia coli D21.
For assay [33], the system named is Acinetobacter baumannii ATCC 19606.
Assay [34] deals with Staphylococcus aureus II ATCC 6538P.

In general, MIC refers to the smallest concentration in the dilution series that meets the test's criterion for growth inhibition. Low readings indicate a more susceptible organism, high ones a less susceptible organism.

`CC(C)C[C@H](NC(=O)[C@@H](NC(=O)[C@H](C)NC(=O)[C@H](C)NC(=O)[C@H](CCCN=C(N)N)NC(=O)CNC(=O)CNC(=O)[C@H](CCCN=C(N)N)NC(=O)[C@@H](NC(=O)[C@H](CCCN=C(N)N)NC(=O)[C@H](C)NC(=O)[C@H](Cc1ccc(O)cc1)NC(=O)[C@H](Cc1ccc(O)cc1)NC(=O)[C@H](CCCCN)NC(=O)[C@H](CCC(N)=O)NC(=O)[C@@H](N)CC(C)C)C(C)C)C(C)C)C(=O)N[C@@H](CO)C(=O)O` [LQKYYARVRGGRAAVLS]: the MIC in assay [1] is at least 157 µM; in [2] it was at least 157 µM; in [3], at least 157 µM; in assay [4], at least 157 µM; in assay [5], above 157 µM.
For the compound `CC(C)C[C@H](NC(=O)[C@H](CC(C)C)NC(=O)[C@H](CCCN=C(N)N)NC(=O)[C@H](CCCCN)NC(=O)[C@H](CC(C)C)NC(=O)[C@H](CC(C)C)NC(=O)[C@H](CCCCN)NC(=O)[C@H](CC(C)C)NC(=O)[C@H](CCCN=C(N)N)NC(=O)[C@H](CCCCN)NC(=O)[C@H](CCCCN)NC(=O)[C@@H](N)CCCN=C(N)N)C(N)=O` [RKKRLKLLKRLL], the MIC in assay [6] was 6.25 µM (≈ 9.78 µg/mL); in assay [7], 1.6 µM (≈ 2.5 µg/mL); in [8], 0.0639 µM (≈ 0.0999 µg/mL); in assay [9], 0.0639 µM (≈ 0.0999 µg/mL); in assay [10] it was 6.39 µM (≈ 9.99 µg/mL); in [11], 0.0639 µM (≈ 0.0999 µg/mL). In addition, the MIC in assay [12] was found to be 6.39 µM (≈ 9.99 µg/mL).
With `CC[C@H](C)[C@H](NC(=O)[C@H](C)NC(=O)[C@H](CCCCN)NC(=O)[C@H](CCCCN)NC(=O)[C@H](CC(C)C)NC(=O)[C@H](Cc1ccccc1)NC(=O)[C@H](Cc1cnc[nH]1)NC(=O)[C@H](C)NC(=O)[C@H](CC(C)C)NC(=O)[C@H](C)N)C(=O)N[C@@H](CCCCN)C(=O)N[C@@H](CCCCN)C(N)=O` [ALAHFLKKAIKK], the minimum inhibitory concentration (MIC) turned out to be 29.2 µM (≈ 40 µg/mL) in [7]; 14.6 µM (≈ 20 µg/mL) in assay [8]; 29.2 µM (≈ 40 µg/mL) in assay [9]; 29.2 µM (≈ 40 µg/mL) in assay [10]; 3.66 µM (≈ 5 µg/mL) in assay [11]; 7.31 µM (≈ 9.99 µg/mL) in assay [12]. The MIC in [13], in assay [14] and in assay [15] was at least 73.1 µM throughout.
On to `CC(C)[C@H](NC(=O)[C@H](CCCCN)NC(=O)[C@H](CCC(=O)O)NC(=O)[C@H](CCCCN)NC(=O)[C@@H](NC(=O)[C@@H](NC(=O)[C@H](CCC(N)=O)NC(=O)[C@@H](NC(=O)[C@@H](NC(=O)[C@@H]1CCCN1C(=O)[C@H](CCCN=C(N)N)NC(=O)[C@@H](NC(=O)[C@@H](NC(=O)[C@@H](N)CCCN=C(N)N)C(C)C)C(C)C)C(C)C)C(C)C)C(C)C)C(C)C)C(=O)N[C@@H](CCCN=C(N)N)C(=O)O` [RVVRPVVQVVKEKVR], for which the minimal inhibitory concentration (MIC) is at least 35.7 µM in assay [16]; at least 35.7 µM in [17]; at least 35.7 µM in assay [18]; at least 35.7 µM in assay [19]; above 35.7 µM in assay [20]; above 35.7 µM in [21]. The minimum inhibitory concentration (MIC) in [22] was at least 35.7 µM; in assay [23], 35.7 µM (≈ 64 µg/mL); in [24], at least 35.7 µM; in assay [25], at least 35.7 µM.
As to `CC[C@H](C)[C@@H]1NC(=O)[C@@H]2CCCN2C(=O)[C@H](CC(C)C)NC(=O)[C@@H]2CCCN2C(=O)[C@H]([C@@H](C)CC)NC(=O)[C@H](C)NC(=O)[C@H](Cc2ccc(O)cc2)NC(=O)[C@@H](NC(=O)[C@@H](NC(=O)[C@@H](N)CCCN=C(N)N)C(C)C)CSSC[C@@H](C(N)=O)NC1=O` [RVCYAIPLPIC], the minimal inhibitory concentration (MIC) in [26] was at least 80.2 µM; in assay [27] it was at least 48.1 µM; in assay [28] it was at least 40.1 µM; in [29] it was at least 48.1 µM.
On to `CC(C)C[C@H](NC(=O)[C@H](Cc1cnc[nH]1)NC(=O)[C@H](CCCN=C(N)N)NC(=O)[C@H](CC(C)C)NC(=O)[C@H](CC(C)C)NC(=O)[C@H](Cc1cnc[nH]1)NC(=O)[C@H](CCCN=C(N)N)NC(=O)[C@H](CC(C)C)NC(=O)[C@H](CC(C)C)NC(=O)[C@H](Cc1cnc[nH]1)NC(=O)[C@H](CCCN=C(N)N)NC(=O)[C@H](CC(C)C)NC(=O)[C@H](C)NC(=O)[C@H](CC(=O)O)NC(=O)[C@@H](N)CC(=O)O)C(=O)O` [DDALRHLLRHLLRHL], for which the MIC was 100 µM (≈ 188 µg/mL) in [30]; at least 100 µM in assay [31]; at least 100 µM in [32]; 100 µM (≈ 188 µg/mL) in assay [21]; above 100 µM in assay [33]; 25 µM and > 12.5 µM in assay [23]. For the same compound, in assay [34], the MIC was at least 100 µM.
